The text below walks through data of patent publication US20240075080A1, “USE OF LACTIC ACID BACTERIA TO INHIBIT METHANOGEN GROWTH OR REDUCE METHANE EMISSIONS” (Fonterra Co-Operative Group Limited, priority 2020, published 2024).

The subject of experiment [1] is Methanobrevibacter boviskoreani JH1. Kind of experiment: Plate-based methanogen bioassay of bacteriocin extract and supernatant samples (Example 2, MOPS buffer). Type of experiment: cell-based. To be noted: for Mean % Growth JH1 / Mean % Inhibition: 30% v/v, sample 1 vs 0.9% NaCl, samples 2-7 vs MRS + NH4 lactate. Here is the method: Cultures of the indicator methanogen strain were prepared according to item 1.1.1 of Example 1.
Cell and supernatant samples of L. rhamnosus HN001 were derived from a commercial manufacturing run of ˜5,000 L under standard production conditions. Four samples were used, consisting of: • Sample 1. L. rhamnosus HN001 cell sample, unwashed, freeze-dried, low pH extract. • Sample 2. L. rhamnosus HN001 supernatant sample, evaporated @50° C., 35% solids, ˜8× concentrated. • Sample 3. L. rhamnosus HN001 supernatant sample, evaporated @50° C., 45%+solids; ˜11× concentrated. • Sample 4. L. rhamnosus HN001 supernatant sample, freeze-dried.
These samples were kept frozen at −20° C. until needed. Prior to bioassay, the cell sample (Sample 1) was resuspended at 5% (wt/vol) in 0.9% NaCl, pH 6.8, and processed using the bacteriocin extraction method described in 2.1.3 below, resulting in an extract which was stored frozen at −20° C. until use. The evaporated supernatant samples (Samples 2 & 3) and the freeze-dried supernatant sample (Sample 4) were also resuspended at 5% (wt/vol) in 0.9% NaCl, pH 6.8 and filtered through Millex-GP 0.22 μm 25 mm diameter sterile filters (Millipore, Merck, Sigma-Aldrich NZ) into sterile N2-flushed Hungate tubes using 10 mL syringes. The headspace of the Hungate tubes were further flushed for 30 min with a sterile flow of N2 to remove traces of O2 from the samples.
Heat treatments were carried out with the L. rhamnosus HN001 supernatant which generated a further three samples as follows: • Sample 5. L. rhamnosus HN001 supernatant sample, heated at 72° C./15 sec. • Sample 6. L. rhamnosus HN001 supernatant sample, heated at 75° C./4 min. • Sample 7. L. rhamnosus HN001 supernatant sample, heated at 100° C./4 min.
After heat treatment, the samples were filtered through 0.22 μm filters as described above into sterile N2-flushed Hungate tubes and the headspace flushed with a sterile flow of N2. The samples were stored at −20° C. until screening in the indicator methanogen bioassay.
The resuspended culture was transferred into a 15 mL Falcon tube and the pH adjusted to ˜6.8 with 6M NaOH. The pH-adjusted culture sample was incubated at 70° C. for 45 minutes, then centrifuged for 15 min at 2600×g at 4° C. The supernatant was decanted and the cell pellet was resuspended in 8 mL 0.9% NaCl, pH 2. The pH of the resuspended pellet was checked and if necessary, 1M HCl was used to adjust the final pH to 2. The cells were incubated for 2 hours at 4° C. with slow agitation on a shaking platform. The cells were then centrifuged at 2600×g for 15 min at 4° C., and the supernatant collected into a fresh 15 mL Falcon tube. The pH of the supernatant was adjusted 6.8 with 1M NaOH. The pH-adjusted supernatant was filtered through a Millex-GP 0.22 μm 25 mm diameter sterile filter (Millipore, Merck, Sigma-Aldrich NZ) into a sterile N2-flushed Hungate tube using a 10 mL syringe, under sterile conditions. The filtered supernatant was frozen at −20° C. until use.
The bacteriocin extracts contained under anaerobic conditions in Hungate tubes were placed into an anaerobic chamber and allowed to thaw. All of the assay components except the bacteriocin extracts, were added and mixed in a sterile Hungate tube inside the anaerobic chamber in proportion to those indicated in Table 3 and then dispensed into wells of a multiwell 96 well plate containing the bacteriocin extracts. […]

For experiment [2] the following is noted: nisin >1 μM added to alfalfa hay; cited from earlier work.
Experiment [3] concerns Methanobrevibacter boviskoreani JH1. Kind of experiment: Plate-based methanogen bioassay of culture filtrates (Example 1, phosphate buffer). Type of experiment: cell-based. To be noted: filtered supernatant 30% v/v (nisin 4 μM); 5 days at 39° C.; OD600 relative to methanogen without treatment; 16 wells. On the procedure: The inoculum of an indicator methanogen strain (Methanobrevibacter boviskoreani JH1) for seeding the plate assay was grown in 9 mL BY medium (Joblin, 2005) supplemented with 0.2 mL of 3 M sodium formate, 0.2 mL of 10 M ethanol, 0.1 mL of Vitamin Solution (Janssen et al., 1997) and 0.1 mL of Coenzyme M Solution (Sigma Aldrich, 0.1 M) by syringe using anaerobic techniques. The head spaces of the tubes were pumped with pressurized O2-free CO2 to 180 kPa and the tubes were incubated at 39° C. without shaking until visible turbidity appeared after 3 to 5 days. Methane produced by the methanogen strain was measured by removing a sample of the headspace gases by syringe and injecting on to a gas chromatograph (GC; Aerograph Corporation, USA) equipped with a Thermal Conductivity Detector (TCD) and using nitrogen as the carrier gas. […] The cultures were routinely observed via wet mounts under fluorescence microscopy, and the methanogen strain appears as short ovoid-shaped rods that fluoresce green under ultraviolet (UV) illumination. […]
Cultures of L. rhamnosus HN001, and control strains (L. plantarum ATCC 8014, L. bulgaricus ATCC 11842) were grown overnight in MRS broth (Sigma-Aldrich) at 39° C. The optical density at 600 nm (OD600) was measured for each culture, and a sample of each was serially diluted through MRS medium and the dilutions plated onto MRS agar plates to determine viable counts. […]

Experiment [4] relates to ruminal methanogens. The following applies: mixed rumen in vitro assay; cited from earlier work.

Regarding Nisin, the “inhibition of growth of the indicator methanogen strain (in words)” value in experiment [1] was “strong inhibition”. For the same substance, in experiment [1] (Assay 1), the “Mean % Growth JH1” value is on record as 5.2% and the “Mean % Inhibition” value turned out to be 97.5%. For the same substance, in experiment [1] (Assay 2), the “Mean % Growth JH1” value is 18.2% and the “Mean % Inhibition” value is 81.8%. Moreover, the “ratio of acetate to propionate production (in words)” value in experiment [2] is on record as “reduced”. The “% methanogen growth” value in experiment [3] was found to be 12.2%.

In the case of bovicin HC5, the “reduction of methane production” value in experiment [4] is reported as 50%.
